# In PMC3787745, “Yeast Mnn9 is both a priming glycosyltransferase and an allosteric activator of mannan biosynthesis” (Open Biology, 2013):
# Biological target: T1, ScVan1 with ScMnn9 (M-Pol I complex) (Saccharomyces cerevisiae, UniProt P23642)
# T1 construct: gene VAN1; separately expressed glycosyltransferase domains (Van1 87-535, Mnn9 93-395) mixed; heterodimer; MBP-His6 tags cleaved by TEV; E. coli BL21(DE3) pLysS; with Mannan polymerase complexes subunit MNN9
# Test: FACE gel of ANTS-labelled products
# Format: biochemical
# Settings: donor 1.2 mM; acceptor 10 mM α-1,6-mannobiose; 10 mM MnCl2; 20 mM HEPES pH 7.5; 30°C; both subunits wild-type
# T1 sequence (P23642 87-535): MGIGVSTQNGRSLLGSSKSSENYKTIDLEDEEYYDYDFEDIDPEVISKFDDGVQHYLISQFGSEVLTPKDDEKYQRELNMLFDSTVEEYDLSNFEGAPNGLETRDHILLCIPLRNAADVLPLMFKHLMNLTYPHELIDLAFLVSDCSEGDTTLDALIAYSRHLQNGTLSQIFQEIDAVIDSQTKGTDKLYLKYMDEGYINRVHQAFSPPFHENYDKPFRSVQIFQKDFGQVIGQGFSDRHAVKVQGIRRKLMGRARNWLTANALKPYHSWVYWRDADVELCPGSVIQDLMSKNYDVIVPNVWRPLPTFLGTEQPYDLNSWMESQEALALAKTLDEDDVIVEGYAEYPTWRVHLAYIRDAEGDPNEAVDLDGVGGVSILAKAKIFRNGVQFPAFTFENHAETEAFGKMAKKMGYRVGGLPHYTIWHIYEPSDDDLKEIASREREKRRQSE
# T1 sequence (P39107 93-395 partner): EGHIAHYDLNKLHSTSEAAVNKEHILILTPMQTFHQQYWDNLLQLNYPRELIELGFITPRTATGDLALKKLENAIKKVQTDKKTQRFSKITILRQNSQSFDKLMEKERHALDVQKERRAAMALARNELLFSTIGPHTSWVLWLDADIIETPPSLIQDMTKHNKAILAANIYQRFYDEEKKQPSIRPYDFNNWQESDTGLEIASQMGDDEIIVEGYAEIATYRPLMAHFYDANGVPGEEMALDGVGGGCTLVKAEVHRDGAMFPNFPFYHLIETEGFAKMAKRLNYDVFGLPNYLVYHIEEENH
structure (smiles),measurement,value
Nc1nc2c(ncn2[C@@H]2O[C@H](COP(=O)(O)OP(=O)(O)O[C@H]3O[C@H](CO)[C@@H](O)[C@H](O)[C@@H]3O)[C@@H](O)[C@H]2O)c(=O)[nH]1 [GDP-Man],FACE gel of ANTS-labelled products,"ScMnn9, ScVan1, GDP-Man, α-1,6-mannobiose and MnCl2 were incubated"
